Measured values published in the supplement of paper PMC10307832.

Experiments:
Assay in all cases: relative viability (nuclei count vs DMSO), 5 days (fraction); higher = more cells survive
MK-8033 + Luminespib = compound: Cn1cc(-c2cnc3ccc4ccc(CS(=O)(=O)NCc5ccccn5)cc4c(=O)c3c2)cn1 [MK-8033] + CCNC(=O)c1noc(-c2cc(C(C)C)c(O)cc2O)c1-c1ccc(CN2CCOCC2)cc1 [Luminespib] (partner 0.01 µM)
Summary of the method: (§1)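 For relative viability, nuclei counts in treated wells were divided by those in vehicle wells. Lung cancer cell lines had been pin-tool dosed in 1536-well plates the day after seeding and cultured for 5 days, then fixed and stained in one step (final 0.05% Triton X-100, 1% formaldehyde, 1 ug/ml Hoechst) and imaged at 4×. Doses were one drug alone or a fixed anchor-drug dose plus five library-drug doses (not always all listed) in √10 steps, and values are duplicate-plate medians.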

RU-SKI 43 + Crizotinib = compound: CC[C@@H](C)CNCC(=O)N1CCC2=C([C@@H]1COC3=CC=CC(=C3)C)C=CS2 [RU-SKI 43] + C[C@@H](Oc1cc(-c2cnn(C3CCNCC3)c2)cnc1N)c1c(Cl)ccc(F)c1Cl [Crizotinib] (partner 1 µM)
Summary of the method: as §1

MK-8033 + Pemetrexed = compound: Cn1cc(-c2cnc3ccc4ccc(CS(=O)(=O)NCc5ccccn5)cc4c(=O)c3c2)cn1 [MK-8033] + Nc1nc2[nH]cc(CCc3ccc(C(=O)N[C@@H](CCC(=O)O)C(=O)O)cc3)c2c(=O)[nH]1 [Pemetrexed] (partner 0.2 µM)
Summary of the method: as §1

MK-8033 + Pictilisib = compound: Cn1cc(-c2cnc3ccc4ccc(CS(=O)(=O)NCc5ccccn5)cc4c(=O)c3c2)cn1 [MK-8033] + CS(=O)(=O)N1CCN(Cc2cc3nc(-c4cccc5[nH]ncc45)nc(N4CCOCC4)c3s2)CC1 [Pictilisib] (partner 1 µM)
Summary of the method: as §1

Cell Line: UMC-11
- relative viability (MK-8033 + Luminespib; first compound 0.02 µM): 1.03
- relative viability (MK-8033 + Luminespib; first compound 0.06325 µM): 0.935
- relative viability (MK-8033 + Luminespib; first compound 0.2 µM): 1.03
- relative viability (MK-8033 + Luminespib; first compound 2 µM): 0.988
- relative viability (RU-SKI 43 + Crizotinib; first compound 0.1 µM): 0.763
- relative viability (RU-SKI 43 + Crizotinib; first compound 0.3162 µM): 0.707
- relative viability (RU-SKI 43 + Crizotinib; first compound 1 µM): 0.664
- relative viability (RU-SKI 43 + Crizotinib; first compound 3.162 µM): 0.654
- relative viability (RU-SKI 43 + Crizotinib; first compound 10 µM): 0.399
- relative viability (MK-8033 + Pemetrexed; first compound 0.02 µM): 0.801
- relative viability (MK-8033 + Pemetrexed; first compound 0.06325 µM): 0.75
- relative viability (MK-8033 + Pemetrexed; first compound 0.2 µM): 0.66
- relative viability (MK-8033 + Pemetrexed; first compound 0.6325 µM): 0.815
- relative viability (MK-8033 + Pemetrexed; first compound 2 µM): 0.683
- relative viability (MK-8033 + Pictilisib; first compound 0.02 µM): 0.746
- relative viability (MK-8033 + Pictilisib; first compound 0.06325 µM): 0.511
- relative viability (MK-8033 + Pictilisib; first compound 0.2 µM): 0.804
- relative viability (MK-8033 + Pictilisib; first compound 0.6325 µM): 0.932
- relative viability (MK-8033 + Pictilisib; first compound 2 µM): 0.699
